US5128330A, “Oxazinone substituted phosphines” (Biofor, Ltd., priority 1991, dated 1992)

System: carrageenan-induced hind paw edema
Assay: Acute antiinflammatory activity, carrageenan-induced paw edema test
Type: in vivo, Male Sprague-Dawley rats
Settings: dosed 1 h before carrageenan, paw volume 3 h after carrageenan, rats
Description: Anti-Inflammatory: This activity was evaluated using a modification of the carrageenan-induced paw edema test described by C. A. Winter et al in Proc. Soc. […] This assay measures the ability of the test compound to antagonize local edema, a characteristic of the inflammatory response.
Acute antiinflammatory activity was evaluated using the carrageenan-inducedpaw edema test described by C. A. Winter, et al in Proc. Soc.
Male Sprague-Dawley rats were divided into groups of six rats each. […] One hour after dosing with the test compounds, the left hind paws were injected with a 0.1 ml carrageenan solution (1% in distilled water, sterilized) intraplantarly. Three hours after carrageenan injection the volume of the injected paws was redetermined. Group means were also determined and the drug effect was calculated as percent inhibition of the hind paw edema according to the following equation: [formula]

| SMILES | % Inhibition (percent inhibition of the hind paw edema) (100 mg/kg) [%] | % Inhibition (percent inhibition of the hind paw edema) (100 mg (so in the source)) [%] |
| --- | --- | --- |
| CN1OCCC([P+](c2ccccc2)(c2ccccc2)c2ccccc2)C1=O (centres unmarked) [Example 1, (dihydro-N-methyl-2H-1,2-oxazin-3(4H)-oxo-4-yl)triphenylphosphonium bromide] | 62 |  |
| CC(=O)Oc1ccccc1C(=O)O [Aspirin] |  | 50 |
